According to patent US11673871B2, “Certain (2S)-N-[(1S)-1-cyano-2-phenylethyl]-1,4-oxazepane-2-carboxamides as dipeptidyl peptidase 1 inhibitors” (AstraZeneca AB, priority 2014, dated 2023):

Assay: Test B: In-vitro competitive aortic tissue binding assay
Settings: 100 μM compound pre-incubated overnight at 37° C. with rat aortic homogenate, competition with 100 μM [14C] WO2010/128324 Ex. 3
Description: To assist the design of DPP1 inhibitors with a decreased risk of binding to elastin rich tissues, such as the aorta, the in-vitro competitive aortic binding assay disclosed below (Test B) was developed to facilitate the selection process.
Test B: In-vitro competitive aortic tissue binding assay Aortic homogenate was prepared from the thoracic aortae of Han Wistar rats. Freshly isolated thoracic aortae were frozen, and later thawed and stripped of non-elastic material. […] Homogenate concentration was adjusted to 30 mg/mL in Puck's saline, and aliquots were stored at −80° C. until use. Positive and negative control compounds and test compounds were made up to 100 mM in DMSO, and added to 1 mL aliquots of aortic homogenate in Puck's saline for a final concentration of 100 μM. Homogenate samples were pre-incubated with test compounds at 37° C., rotating, overnight. [^14C]4-Amino-N-[(1S)-1-cyano-2-(4′-cyanobiphenyl-4-yl)ethyl]tetrahydro-2H-pyran-4-carboxamide was then added to all samples to a final concentration of 100 μM, and samples were incubated at 37° C., rotating, for a further 2 h. Protein was precipitated from each sample by the addition of 10 mL acetone, pre-chilled to −20° C. Samples were left overnight at −20° C. to allow complete precipitation. Precipitate was pelleted by centrifugation at 4,500×g at 4° C. for 20 min, an aliquot of supernatant was removed for analysis, and the remainder of the supernatant discarded. Precipitate was washed by resuspension in 10 mL 80% methanol in distilled water, and re-pelleted by centrifugation at 4,500×g at 4° C. for 20 min. […] After final wash, precipitate was air-dried, and dissolved overnight in 1 mL NCSII Tissue Solubiliser. 1 mL aliquots of supernatants were added to 5 mL Ultima Gold scintillation fluid (Perkin Elmer, MA, U.S.A.), and 1 mL solubilised pellets were added to 5 mL Hionic-Fluor scintillation fluid (Perkin Elmer, MA, U.S.A.). Radioactivity of samples was determined on a Beckman LS6500 multipurpose scintillation counter (Beckman Coulter, IN, U.S.A.). […] Duplicate samples were tested for each compound on each experimental occasion, and at least two experiments were run for each test compound. […] 1-way ANOVA and Bonferroni's multiple comparison tests were performed to calculate significance of differences from vehicle control.

Cn1c(=O)oc2ccc(-c3ccc(C[C@@H](C#N)NC(=O)[C@@H]4CCCCN4)cc3)cc21 [WO2009/074829 (Example 96)]
Aortic Tissue Binding: Medium binder

Cn1c(=O)oc2ccc(-c3ccc(C[C@@H](C#N)NC(=O)[C@@H]4CNCCCO4)cc3)cc21 [Example 2, (2S)-N-{(1S)-1-Cyano-2-[4-(3-methyl-2-oxo-2,3-dihydro-1,3-benzoxazol-5-yl)phenyl]ethyl}-1,4-oxazepane-2-carboxamide]
Aortic Tissue Binding: No binder

N#Cc1ccc(-c2ccc(C[C@@H](C#N)NC(=O)[C@@H]3CCCCN3)cc2)cc1 [WO2009/074829 (Example 24)]
Aortic Tissue Binding: Binder

Cn1c(=O)oc2ccc(-c3ccc(C[C@@H](C#N)NC(=O)C4(N)CCOCC4)cc3)cc21 [WO2010/128324 (Example 17)]
Aortic Tissue Binding: Strong binder

N#Cc1ccc(-c2ccc(C[C@@H](C#N)NC(=O)C3(N)CCOCC3)cc2)cc1 [WO2010/128324 (Ex. 3), 4-amino-N-[(1S)-1-cyano-2-(4′-cyanobiphenyl-4-yl)ethyl]tetrahydro-2H-pyran-4-carboxamide]
Aortic Tissue Binding: Strong binder (reference)
